In patent EP3821889A1, “METHODS FOR USING LOW-DOSE […] MYOCARIAL INFARCTION” (Institut de Cardiologie de Montréal, priority 2019, dated 2021):
Where “and” joins values, the source holds several entries; their conditions need not be identical. Identical values can stand only once. Entries after “also recorded” stand apart in the source; their conditions may differ.

Experiments:
[1] = CIRT; cited from earlier work
[2] = test system: patients recruited within 30 days after a myocardial infarction; details: in vivo
[3] = test system: patients with stable coronary disease; details: in vivo; cited from earlier work
[4] = test system: patients recruited within 30 days after a myocardial infarction; details: human, in vivo
[5] = test system: High-sensitivity C-reactive protein; details: in vivo
[6] = test system: white-cell count; details: in vivo

Q: For CN(Cc1cnc2nc(N)nc(N)c2n1)c1ccc(C(=O)N[C@@H](CCC(=O)O)C(=O)O)cc1 [methotrexate], which “cardiovascular outcomes and plasma markers of inflammation (in words)” value [1] is on record?
A: did not affect cardiovascular outcomes or plasma markers of inflammation

Q: Which Anemia [2] does the source give for COc1cc2c(c(OC)c1OC)-c1ccc(OC)c(=O)cc1[C@@H](NC(C)=O)CC2 [Colchicine] here?
A: 14 (0.6) number of patients (percent)

Q: What about the “Any serious adverse event” value [2] of the same molecule?
A: 383 (16.4) number of patients (percent)

Q: And the “At least one gastrointestinal adverse event” value [2]?
A: 17.5%

Q: What about the “Diarrhea reported, % of the patients” value [2] of the same molecule?
A: 9.7%

Q: And the Gastrointestinal hemorrhage [2]?
A: 7 (0.3) number of patients (percent)

Q: And the “Gastrointestinal serious adverse event” value [2]?
A: 46 (2.0) number of patients (percent)

Q: What about the “Hospitalization for heart failure” value [2] of the same molecule?
A: 25 (1.1) number of patients (percent)

Q: And the “Infection as a serious adverse event, % of the patients” value [2]?
A: 2.2%

Q: What about the “Infection serious adverse event” value [2] of the same molecule?
A: 51 (2.2) number of patients (percent)

Q: And the Leukopenia [2]?
A: 2 (0.1) number of patients (percent)

Q: And the Nausea adverse event [2]?
A: 43 (1.8) number of patients (percent)

Q: And the “Pneumonia reported as a serious adverse event, % of the patients” value [2]?
A: 0.9%

Q: What about the “Pneumonia serious adverse event” value [2] of the same molecule?
A: 21 (0.9) number of patients (percent)

Q: And the “Septic shock serious adverse event” value [2]?
A: 2 (0.1) number of patients (percent)

Q: And the Thrombocytopenia [2]?
A: 3 (0.1) number of patients (percent)

Q: What about the “incidence of adverse events considered to be related to trial drug” value [2] of the same molecule?
A: 16.0%

Q: And the “incidence of septic shock (in words)” value [2]?
A: did not increase the incidence of septic shock

Q: What about the “nausea, % of the patients” value [2] of the same molecule?
A: 1.8%

Q: And the “overall incidence of serious adverse events” value [2]?
A: 16.4%

Q: And the “serious adverse event of myopathy (in words)” value [2]?
A: no serious adverse event of myopathy linked to colchicine

Q: What about the “trial regimen discontinued, % of the patients” value [2] of the same molecule?
A: 18.4%

Q: What about the “cardiovascular events (in words)” value [3] of the same molecule?
A: fewer cardiovascular events

Q: What about the “Adjusted Hazard Ratio (95% CI), time to first primary endpoint” value [4] of the same molecule?
A: 0.78 (0.62-0.98)

Q: And the Death [4]?
A: 43 (1.8) number (percent)

Q: What about the “Death from cardiovascular causes” value [4] of the same molecule?
A: 20 (0.8) number (percent)

Q: What about the “Deep venous thrombosis or pulmonary embolus” value [4] of the same molecule?
A: 10 (0.4) number (percent)

Q: What about the “Hazard Ratio (95% CI), CV death” value [4] of the same molecule?
A: 0.83 (0.45-1.53)

Q: What about the “Hazard Ratio (95% CI), Death” value [4] of the same molecule?
A: 0.98 (0.64–1.49)

Q: And the “Hazard Ratio (95% CI), Deep venous thrombosis or pulmonary embolus” value [4]?
A: 1.43 (0.54–3.75)

Q: What about the “Hazard Ratio (95% CI), MI” value [4] of the same molecule?
A: 0.84 (0.62-1.14)

Q: What about the “Hazard Ratio (95% CI), Resuscitated cardiac arrest” value [4] of the same molecule?
A: 1.00 (0.29-3.46)

Q: What about the “Hazard Ratio (95% CI), Stroke” value [4] of the same molecule?
A: 0.26 (0.10-0.71)

Q: What about the “Hazard Ratio (95% CI), Urgent hospitalization for angina requiring revascularization” value [4] of the same molecule?
A: 0.47 (0.28-0.78)

Q: What about the “Hazard Ratio (95% CI), WLW model, 1st Event” value [4] of the same molecule?
A: 0.77 (0.61; 0.96)

Q: And the “Hazard Ratio (95% CI), WLW model, 2nd Event” value [4]?
A: 0.73 (0.48; 1.11)

Q: And the “Hazard Ratio (95% CI), WLW model, 3rd Event” value [4]?
A: 0.64 (0.37; 1.10)

Q: What about the “Hazard Ratio (95% CI), WLW model, Average” value [4] of the same molecule?
A: 0.77 (0.61; 0.96)

Q: What about the “Hazard Ratio (95% CI), total primary endpoint events, Andersen-Gill model” value [4] of the same molecule?
A: 0.69 (0.54; 0.88)

Q: What about the MI [4] of the same molecule?
A: 77 (3.4%) no. (%)

Q: What about the Myocardial infarction [4] of the same molecule?
A: 89 (3.8) number (percent)

Q: What about the “Number of primary endpoint events per patient: 0 (number of patients)” value [4] of the same molecule?
A: 2235

Q: And the “Number of primary endpoint events per patient: 1 (number of patients)” value [4]?
A: 111

Q: And the “Number of primary endpoint events per patient: 2 (number of patients)” value [4]?
A: 18

Q: And the “Number of primary endpoint events per patient: 3 (number of patients)” value [4]?
A: 1

Q: And the “Number of primary endpoint events per patient: 4 (number of patients)” value [4]?
A: 1

Q: What about the Primary endpoint [4] of the same molecule?
A: 115(5.1%) no. (%)

Q: What about the “Rate of primary endpoint events per 100 patient-months” value [4] of the same molecule?
A: 0.29 per 100 patient-months

Q: And the “Secondary composite end point” value [4]?
A: 111 (4.7) number (percent)

Q: And the “Total number of primary endpoint events” value [4]?
A: 154

Q: What about the “Urgent hospitalization for angina leading to revascularization” value [4] of the same molecule?
A: 25 (1.1) number (percent)

Q: What about the “Urgent hospitalization for angina requiring revascularization” value [4] of the same molecule?
A: 22 (1.0%) no. (%)

Q: And the “ischemic cardiovascular events / primary composite efficacy end point compared with placebo (in words)” value [4]?
A: significantly lower percentage of patients with ischemic cardiovascular events than placebo; also recorded: statistically significant lower risk of ischemic cardiovascular events than placebo

Q: And the “primary end point occurred in % of the patients” value [4]?
A: 5.5% and 5.1%

Q: And the “secondary efficacy end point occurred in % of the patients” value [4]?
A: 4.7%

Q: What about the “Hs-C reactive protein, 6 months, geometric mean (IQR)” value [5] of the same molecule?
A: 1.37 (0.75, 2.13) mg/L

Q: And the “Hs-C reactive protein, Adjusted GM percent change (95% CI)” value [5]?
A: -70.0% and -70.0 (-74.6, -64.5) %

Q: What about the “Hs-C reactive protein, Placebo-adjusted GM percent change (95% CI)” value [5] of the same molecule?
A: -10.1% and -10.1 (-28.6, 13.4) %

Q: And the “Hs-C reactive protein, Randomization, geometric mean (IQR)” value [5]?
A: 4.27 (2.12, 7.22) mg/L

Q: And the “reduction in the C-reactive protein level” value [5]?
A: > 65%

Q: What about the “Circulating lymphocytes, 12 months, geometric mean (IQR)” value [6] of the same molecule?
A: 1.83 (1.50, 2.44) 10^3/µL

Q: And the “Circulating lymphocytes, Adjusted GM percent change (95% CI)” value [6]?
A: 1.80 (-0.46, 4.11) %

Q: And the “Circulating lymphocytes, Placebo-adjusted GM percent change (95% CI)” value [6]?
A: 1.10 (-2.06, 4.36) %

Q: What about the “Circulating lymphocytes, Randomization, geometric mean (IQR)” value [6] of the same molecule?
A: 1.79 (1.40, 2.40) 10^3/µL

Q: What about the “Circulating neutrophils, 12 months, geometric mean (IQR)” value [6] of the same molecule?
A: 3.95 (3.27, 5.08) 10^3/µL

Q: What about the “Circulating neutrophils, Adjusted GM percent change (95% CI)” value [6] of the same molecule?
A: -27.63 (-29.48, -25.73) %

Q: And the “Circulating neutrophils, Placebo-adjusted GM percent change (95% CI)” value [6]?
A: 0.45 (-3.28, 4.32) %

Q: What about the “Circulating neutrophils, Randomization, geometric mean (IQR)” value [6] of the same molecule?
A: 5.45 (4.36, 7.15) 10^3/µL

Q: And the “Total white blood cell count, 12 months, geometric mean (IQR)” value [6]?
A: 6.95 (5.99, 8.30) 10^3/µL

Q: And the “Total white blood cell count, Adjusted GM percent change (95% CI)” value [6]?
A: -18.8% and -18.81 (-20.12, -17.47) %

Q: And the “Total white blood cell count, Placebo-adjusted GM percent change (95% CI)” value [6]?
A: 0.3% and 0.26 (-2.15, 2.72) %

Q: What about the “Total white blood cell count, Randomization, geometric mean (IQR)” value [6] of the same molecule?
A: 8.54 (7.10, 10.40) 10^3/µL
